Experimental data: ChEMBL document CHEMBL3045961, “Synthesis and evaluation of some pyrimidine analogs against toxoplasmosis” (Med Chem Res, 2008)
The source made the active and inactive calls. The rule behind the calls is not given here.

Columns and labels:
[1] = molecular target: T1, Bifunctional dihydrofolate reductase-thymidylate synthase (Cryptosporidium parvum, UniProt Q27552); test: Inhibition of Cryptosporidium parvum recombinant DHFR using dihydrofolate as substrate incubated for 5 min prior to substrate addition by spectrophotometric assay
T1 sequence (Q27552 whole entry): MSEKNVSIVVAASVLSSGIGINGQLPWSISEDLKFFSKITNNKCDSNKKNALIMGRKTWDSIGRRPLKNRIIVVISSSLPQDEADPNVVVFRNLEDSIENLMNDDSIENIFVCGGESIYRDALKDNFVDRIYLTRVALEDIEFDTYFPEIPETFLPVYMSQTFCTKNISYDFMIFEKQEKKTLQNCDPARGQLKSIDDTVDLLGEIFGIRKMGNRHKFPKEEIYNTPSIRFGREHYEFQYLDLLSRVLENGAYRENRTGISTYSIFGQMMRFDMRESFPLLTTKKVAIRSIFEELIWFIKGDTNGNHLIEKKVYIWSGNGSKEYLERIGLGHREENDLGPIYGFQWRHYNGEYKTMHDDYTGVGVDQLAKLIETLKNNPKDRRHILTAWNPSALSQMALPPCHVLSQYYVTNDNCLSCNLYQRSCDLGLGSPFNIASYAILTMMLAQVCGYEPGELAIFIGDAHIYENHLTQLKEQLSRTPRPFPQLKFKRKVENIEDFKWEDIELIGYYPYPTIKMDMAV

Dihydrofolate reductase = molecular target: T2, Dihydrofolate reductase (Homo sapiens, UniProt P00374); test: Inhibition of Homo sapiens (human) dihydrofolate reductase using dihydrofolate as substrate incubated for 5 min prior to substrate addition by spectrophotometric assay
T2 sequence (P00374 whole entry): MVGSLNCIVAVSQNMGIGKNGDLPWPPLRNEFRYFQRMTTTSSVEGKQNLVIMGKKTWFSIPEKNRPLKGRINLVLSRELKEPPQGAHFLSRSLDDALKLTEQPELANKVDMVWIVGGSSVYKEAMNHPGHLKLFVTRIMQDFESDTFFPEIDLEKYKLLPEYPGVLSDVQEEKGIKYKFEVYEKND

Toxoplasma gondii [2] = test: Antiparasitic activity Toxoplasma gondii RH infected Swiss albino mouse assessed as decrease in interstitial pneumonia at 0.25 mg, po administered 48 hr post-infection measured after 3 days by haematoxylin and eosin staining relative to control; assay type: functional, organism-based
Toxoplasma gondii [3] = test: Antiparasitic activity Toxoplasma gondii RH infected Swiss albino mouse assessed as decrease in host lung congestion at 0.25 mg, po administered 48 hr post-infection measured after 3 days by haematoxylin and eosin staining relative to control; assay type: functional, organism-based
Toxoplasma gondii [4] = test: Antiparasitic activity Toxoplasma gondii RH infected Swiss albino mouse assessed as megakaryocytes in host spleen at 0.25 mg, po administered 48 hr post-infection measured after 3 days by haematoxylin and eosin staining relative to control; assay type: functional, organism-based
Toxoplasma gondii [5] = test: Antiparasitic activity Toxoplasma gondii RH infected Swiss albino mouse assessed as extramedullary hematopoiesis in host spleen at 0.25 mg, po administered 48 hr post-infection measured after 3 days by haematoxylin and eosin staining relative to control; assay type: functional, organism-based
Toxoplasma gondii [6] = test: Antiparasitic activity Toxoplasma gondii RH infected Swiss albino mouse assessed as epethelioid granuloma in host spleen at 0.25 mg, po administered 48 hr post-infection measured after 3 days by haematoxylin and eosin staining relative to control; assay type: functional, organism-based
Toxoplasma gondii [7] = test: Antiparasitic activity Toxoplasma gondii RH infected Swiss albino mouse assessed as increase in host spleen red pulp at 0.25 mg, po administered 48 hr post-infection measured after 3 days by haematoxylin and eosin staining relative to control; assay type: functional, organism-based
Toxoplasma gondii [8] = test: Antiparasitic activity Toxoplasma gondii RH infected Swiss albino mouse assessed as decrease in host spleen white pulp at 0.25 mg, po administered 48 hr post-infection measured after 3 days by haematoxylin and eosin staining relative to control; assay type: functional, organism-based
Toxoplasma gondii [9] = test: Antiparasitic activity Toxoplasma gondii RH infected Swiss albino mouse assessed as decrease in host spleen necrosis at 0.25 mg, po administered 48 hr post-infection measured after 3 days by haematoxylin and eosin staining relative to control; assay type: functional, organism-based
Toxoplasma gondii [10] = test: Antiparasitic activity Toxoplasma gondii RH infected Swiss albino mouse assessed as clear lymphocytes in host liver focal granuloma at 0.25 mg, po administered 48 hr post-infection measured after 3 days by haematoxylin and eosin staining relative to control; assay type: functional, organism-based
Toxoplasma gondii [11] = test: Antiparasitic activity Toxoplasma gondii RH infected Swiss albino mouse assessed as clear mononuclear cells in host liver focal granuloma at 0.25 mg, po administered 48 hr post-infection measured after 3 days by haematoxylin and eosin staining relative to control; assay type: functional, organism-based
Toxoplasma gondii [12] = test: Antiparasitic activity Toxoplasma gondii RH infected Swiss albino mouse assessed as decrease in host liver necrosis at 0.25 mg, po administered 48 hr post-infection measured after 3 days by haematoxylin and eosin staining relative to control; assay type: functional, organism-based
Toxoplasma gondii [13] = test: Antiparasitic activity Toxoplasma gondii RH infected Swiss albino mouse assessed as parasite deformity in host peritoneal exudate at 0.25 mg, po administered 48 hr post-infection measured after 3 days by light microscopic analysis; assay type: functional, organism-based
Toxoplasma gondii [14] = test: Antiparasitic activity Toxoplasma gondii RH infected Swiss albino mouse assessed as decreased parasite movement in host peritoneal exudate at 0.25 mg, po administered 48 hr post-infection measured after 3 days by light microscopic analysis; assay type: functional, organism-based
Toxoplasma gondii [15] = test: Antiparasitic activity Toxoplasma gondii RH infected Swiss albino mouse assessed as decrease in Toxoplasma antigen in host serum at 0.25 mg, po administered 48 hr post-infection measured after 3 days by Co-A test relative to control; assay type: functional, organism-based
Toxoplasma gondii [16] = test: Antiparasitic activity against Toxoplasma gondii RH infected Swiss albino mouse assessed as decrease in tachozyte count in spleen at 0.25 mg, po administered 48 hr post-infection measured after 3 days by Geimsa staining relative to control; assay type: functional, organism-based
Toxoplasma gondii [17] = test: Antiparasitic activity against Toxoplasma gondii RH infected Swiss albino mouse assessed as decrease in tachozyte count in liver at 0.25 mg, po administered 48 hr post-infection measured after 3 days by Geimsa staining relative to control; assay type: functional, organism-based

COc1cc(Cc2cnc(N)nc2N)cc(OC)c1OC [TRIMETHOPRIM] gave an IC50 [1] of 4000 nM.

With CCOC(=O)C1=C(C)NC(=S)NC1c1ccccc1 (centres undefined) the IC50 (Dihydrofolate reductase) was 580 nM, the IC50 [1] was 4700 nM and the Activity (Toxoplasma gondii [2]) was “inactive”. For the same compound, the Activity (Toxoplasma gondii [3]) was “inactive”, the Activity (Toxoplasma gondii [4]) was “inactive” and the Activity (Toxoplasma gondii [5]) was “inactive”. The Activity (Toxoplasma gondii [6]) was “inactive”, the Activity (Toxoplasma gondii [7]) was “inactive” and the Activity (Toxoplasma gondii [8]) was “inactive”. For the same compound, the Activity (Toxoplasma gondii [9]) was “inactive”, the Activity (Toxoplasma gondii [10]) was “inactive” and the Activity (Toxoplasma gondii [11]) was “inactive”. The Activity (Toxoplasma gondii [12]) was “inactive”, the Activity (Toxoplasma gondii [13]) was “inactive” and the Activity (Toxoplasma gondii [14]) was “inactive”. The Activity (Toxoplasma gondii [15]) was “inactive”, the Activity (Toxoplasma gondii [16]) was “inactive” and the Activity (Toxoplasma gondii [17]) was “inactive”.

With CCOC(=O)CSC1=NC(c2ccccc2OC)C(C(=O)OCC)=C(C)N1 (centres undefined) the IC50 (Dihydrofolate reductase) was 7300 nM, the IC50 [1] was 5100 nM and the Activity (Toxoplasma gondii [2]) was “inactive”. For the same compound, the Activity (Toxoplasma gondii [3]) was “inactive”, the Activity (Toxoplasma gondii [4]) was “inactive” and the Activity (Toxoplasma gondii [5]) was “inactive”. The Activity (Toxoplasma gondii [6]) was “inactive”, the Activity (Toxoplasma gondii [7]) was “inactive” and the Activity (Toxoplasma gondii [8]) was “inactive”. The Activity (Toxoplasma gondii [9]) was “inactive”, the Activity (Toxoplasma gondii [10]) was “inactive” and the Activity (Toxoplasma gondii [11]) was “inactive”. The Activity (Toxoplasma gondii [12]) was “inactive”, the Activity (Toxoplasma gondii [13]) was “inactive” and the Activity (Toxoplasma gondii [14]) was “inactive”. For the same compound, the Activity (Toxoplasma gondii [15]) was “inactive”, the Activity (Toxoplasma gondii [16]) was “inactive” and the Activity (Toxoplasma gondii [17]) was “inactive”.

CCOC(=O)C1=C(C)NC(=S)NC1c1ccccc1OC (centres undefined) was tested, and the IC50 (Dihydrofolate reductase) was 1900 nM, the IC50 [1] was 2400 nM and the Activity (Toxoplasma gondii [2]) was “inactive”. For the same compound, the Activity (Toxoplasma gondii [3]) was “inactive”, the Activity (Toxoplasma gondii [4]) was “inactive” and the Activity (Toxoplasma gondii [5]) was “inactive”. The Activity (Toxoplasma gondii [6]) was “inactive”, the Activity (Toxoplasma gondii [7]) was “inactive” and the Activity (Toxoplasma gondii [8]) was “inactive”. For the same compound, the Activity (Toxoplasma gondii [9]) was “inactive”, the Activity (Toxoplasma gondii [10]) was “inactive” and the Activity (Toxoplasma gondii [11]) was “inactive”. The Activity (Toxoplasma gondii [12]) was “inactive”, the Activity (Toxoplasma gondii [13]) was “inactive” and the Activity (Toxoplasma gondii [14]) was “inactive”. For the same compound, the Activity (Toxoplasma gondii [15]) was “inactive”, the Activity (Toxoplasma gondii [16]) was “inactive” and the Activity (Toxoplasma gondii [17]) was “inactive”.

For CCOC(=O)C1=C(C)N=C(SCC(=O)c2ccc(Cl)c([N+](=O)[O-])c2)NC1c1ccccc1 (centres undefined), the IC50 (Dihydrofolate reductase) was 3000 nM, the IC50 [1] was 2300 nM and the Activity (Toxoplasma gondii [2]) was “inactive”. The Activity (Toxoplasma gondii [3]) was “inactive”, the Activity (Toxoplasma gondii [4]) was “inactive” and the Activity (Toxoplasma gondii [5]) was “inactive”. For the same compound, the Activity (Toxoplasma gondii [6]) was “inactive”, the Activity (Toxoplasma gondii [7]) was “inactive” and the Activity (Toxoplasma gondii [8]) was “inactive”. The Activity (Toxoplasma gondii [9]) was “inactive”, the Activity (Toxoplasma gondii [10]) was “inactive” and the Activity (Toxoplasma gondii [11]) was “inactive”. For the same compound, the Activity (Toxoplasma gondii [12]) was “inactive”, the Activity (Toxoplasma gondii [13]) was “inactive” and the Activity (Toxoplasma gondii [14]) was “inactive”. The Activity (Toxoplasma gondii [15]) was “inactive”, the Activity (Toxoplasma gondii [16]) was “inactive” and the Activity (Toxoplasma gondii [17]) was “inactive”.

CCOC(=O)C1=C(C)NC(=S)NC1/C=C\c1ccccc1 (centres undefined) was tested, and the IC50 (Dihydrofolate reductase) was 2900 nM, the IC50 [1] was 2100 nM and the Activity (Toxoplasma gondii [2]) was “inactive”. For the same compound, the Activity (Toxoplasma gondii [3]) was “inactive”, the Activity (Toxoplasma gondii [4]) was “inactive” and the Activity (Toxoplasma gondii [5]) was “inactive”. The Activity (Toxoplasma gondii [6]) was “inactive”, the Activity (Toxoplasma gondii [7]) was “inactive” and the Activity (Toxoplasma gondii [8]) was “inactive”. The Activity (Toxoplasma gondii [9]) was “inactive”, the Activity (Toxoplasma gondii [10]) was “inactive” and the Activity (Toxoplasma gondii [11]) was “inactive”. For the same compound, the Activity (Toxoplasma gondii [12]) was “inactive”, the Activity (Toxoplasma gondii [13]) was “inactive” and the Activity (Toxoplasma gondii [14]) was “inactive”. The Activity (Toxoplasma gondii [15]) was “inactive”, the Activity (Toxoplasma gondii [16]) was “inactive” and the Activity (Toxoplasma gondii [17]) was “inactive”.

With CCOC(=O)CSC1=NC(c2ccccc2)C(C(=O)OCC)=C(C)N1 (centres undefined) the IC50 (Dihydrofolate reductase) was 830 nM, the IC50 [1] was 3200 nM and the Activity (Toxoplasma gondii [2]) was “inactive”. For the same compound, the Activity (Toxoplasma gondii [3]) was “inactive”, the Activity (Toxoplasma gondii [4]) was “inactive” and the Activity (Toxoplasma gondii [5]) was “inactive”. For the same compound, the Activity (Toxoplasma gondii [6]) was “inactive”, the Activity (Toxoplasma gondii [7]) was “inactive” and the Activity (Toxoplasma gondii [8]) was “inactive”. The Activity (Toxoplasma gondii [9]) was “inactive”, the Activity (Toxoplasma gondii [10]) was “inactive” and the Activity (Toxoplasma gondii [11]) was “inactive”. For the same compound, the Activity (Toxoplasma gondii [12]) was “inactive”, the Activity (Toxoplasma gondii [13]) was “inactive” and the Activity (Toxoplasma gondii [14]) was “inactive”. For the same compound, the Activity (Toxoplasma gondii [15]) was “inactive”, the Activity (Toxoplasma gondii [16]) was “inactive” and the Activity (Toxoplasma gondii [17]) was “inactive”.
